21 compounds from patent publication US8404679B2, “Pyrrolidine derivatives as NK2 receptor antagonists” (Hoffmann-La Roche Inc., priority 2008, dated 2013) can be followed below.

The target of the assay is T1, human NK2 receptor (Homo sapiens, UniProt P21452).
T1 construct: purchased Perkin Elmer biosignal Inc. 6110510
T1 sequence (P21452 1-398): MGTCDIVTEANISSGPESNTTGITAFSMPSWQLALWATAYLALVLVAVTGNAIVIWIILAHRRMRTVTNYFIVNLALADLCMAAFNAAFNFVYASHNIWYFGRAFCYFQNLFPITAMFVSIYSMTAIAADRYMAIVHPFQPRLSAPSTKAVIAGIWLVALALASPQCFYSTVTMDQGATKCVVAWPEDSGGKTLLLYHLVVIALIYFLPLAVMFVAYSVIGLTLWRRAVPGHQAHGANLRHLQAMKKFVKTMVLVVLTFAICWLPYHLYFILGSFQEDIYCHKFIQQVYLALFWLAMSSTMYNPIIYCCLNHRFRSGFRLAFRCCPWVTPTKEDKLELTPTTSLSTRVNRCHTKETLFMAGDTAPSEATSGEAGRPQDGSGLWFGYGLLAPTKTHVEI
Kind of assay: [3H]SR48968 competition binding assay. The following applies: [3H]SR48968 displacement, membranes of CHO cells stably expressing recombinant human NK2 receptor; Ki from IC50 by Cheng-Prussoff. The protocol: [^3H]SR48968 Competition Binding Assay
hNK2 receptor binding experiment were performed using [^3H]SR48968 (Catalog No. TRK398, specific activity: 27.0 Ci/mmol, Amersham, GE Healthcare UK limited, Buckinghamshire, UK) and membrane isolated from CHO cells stably expressing recombinant human NK2 receptor (product No. 6110510, Perkin Elmer biosignal Inc., Shelton, Conn., USA). After thawing, the membrane homogenates were centrifuged at 48,000×g for 10 min at 4° C., the pellets were resuspended in the 50 mM Tris-HCl, 3 mM MnCl2, 4 μg/mL Chymostatin, 0.04% BSA binding buffer at pH 7.4 to a final assay concentration of 6.5 μg protein/well. For inhibition experiments, membranes were incubated with [^3H]SR48968 at a concentration equal to KD value of radioligand and 10 concentrations of the inhibitory compound (0.0003-10 μM) (in a total reaction volume of 500 μl) for 75 min at room temperature (RT). At the end of the incubation, membranes were filtered onto unitfilter (96-well white microplate with bonded GF/C filter preincubated 1 h in 0.3% polyethylenimine, Packard BioScience, Meriden, Conn.) with a Filtermate 196 harvester (Packard BioScience) and washed 4 times with ice-cold 50 mM Tris-HCl, pH 7.4 buffer. Nonspecific binding was measured in the presence of 10 μM 1-{2-[(R)-3-(3,4-dichloro-phenyl)-1-(3,4,5-trimethoxy-benzoyl)-pyrrolidin-3-yl]-ethyl}-4-phenyl-piperidine-4-carboxylic acid amide. The radioactivity on the filter was counted (5 min) on a Packard Top-count microplate scintillation counter with quenching correction after addition of 45 μl of microscint 40 (Canberra Packard S. A., Zürich, Switzerland) and shaking for 1 h. Inhibition curves were fitted according to the Hill equation: y=100/(1+(x/IC50)^nH), where nH=slope factor using Excel-fit 4 software (Microsoft). IC50 values were derived from the inhibition curve and the affinity constant (Ki) values were calculated using the Cheng-Prussoff equation Ki=IC50/(1+[L]/KD) where [L] was the concentration of radioligand and KD was its dissociation constant at the receptor, derived from the saturation isotherm.

Usually Ki stands for a measure of affinity in units of concentration, obtained from inhibition or displacement. On to `COc1ccc(C(=O)N(C)[C@@H]2CN(C(=O)c3cc(S(C)(=O)=O)ccc3F)C[C@H]2c2ccc(Cl)c(Cl)c2)cc1C(F)(F)F` (racemic) [Example 49, rac-N-[(3S,4R)-4-(3,4-Dichloro-phenyl)-1-(2-fluoro-5-methanesulfonyl-benzoyl)-pyrrolidin-3-yl]-4-methoxy-N-methyl-3-trifluoromethyl-benzamide], for which the Ki came to 2.53 nM.

In the case of `COc1ccc(C(=O)N(C)[C@@H]2CN(C(=O)c3ccc(C(F)(F)F)cc3)C[C@H]2c2ccc(Cl)c(Cl)c2)cc1C(F)(F)F` (racemic) [Example 50, rac-N-[(3S,4R)-4-(3,4-Dichloro-phenyl)-1-(4-trifluoromethyl-benzoyl)-pyrrolidin-3-yl]-4-methoxy-N-methyl-3-trifluoromethyl-benzamide], the Ki stood at 6.3 nM. Then `COc1ccc(C(=O)N(C)[C@@H]2CN(C(=O)c3ccncc3)C[C@H]2c2ccc(Cl)c(Cl)c2)cc1C(F)(F)F` (racemic) [Example 51, rac-N-[(3S,4R)-4-(3,4-Dichloro-phenyl)-1-(pyridine-4-carbonyl)-pyrrolidin-3-yl]-4-methoxy-N-methyl-3-trifluoromethyl-benzamide], with 3 nM; and `COc1ccc(C(=O)N(C)[C@@H]2CN(C(=O)c3cc(Cl)nc(Cl)c3)C[C@H]2c2ccc(Cl)c(Cl)c2)cc1C(F)(F)F` (racemic) [Example 52, rac-N-[(3S,4R)-4-(3,4-Dichloro-phenyl)-1-(2,6-dichloro-pyridine-4-carbonyl)-pyrrolidin-3-yl]-4-methoxy-N-methyl-3-trifluoromethyl-benzamide], with 3.72 nM. In the case of `COc1ccc(C(=O)N(C)[C@@H]2CN(C(=O)c3ccc(OC(F)(F)F)cc3)C[C@H]2c2ccc(Cl)c(Cl)c2)cc1C(F)(F)F` (racemic) [Example 53, rac-N-[(3S,4R)-4-(3,4-Dichloro-phenyl)-1-(4-trifluoromethoxy-benzoyl)-pyrrolidin-3-yl]-4-methoxy-N-methyl-3-trifluoromethyl-benzamide] it was 2.91 nM; in that of `COc1ccc(C(=O)N(C)[C@@H]2CN(C(=O)c3cccc(S(C)(=O)=O)c3)C[C@H]2c2ccc(Cl)c(Cl)c2)cc1C(F)(F)F` (racemic) [Example 54, rac-N-[(3S,4R)-4-(3,4-Dichloro-phenyl)-1-(3-methanesulfonyl-benzoyl)-pyrrolidin-3-yl]-4-methoxy-N-methyl-3-trifluoromethyl-benzamide], 3.81 nM. In the case of `COc1ccc(C(=O)N2C[C@@H](N(C)C(=O)c3ccc(OC)c(C(F)(F)F)c3)[C@H](c3ccc(Cl)c(Cl)c3)C2)cc1C` (racemic) [Example 55, rac-N-[(3S,4R)-4-(3,4-Dichloro-phenyl)-1-(4-methoxy-3-methyl-benzoyl)-pyrrolidin-3-yl]-4-methoxy-N-methyl-3-trifluoromethyl-benzamide] it was 2.06 nM; in that of `COc1ccc(C(=O)N(C)[C@@H]2CN(C(=O)c3cc(C)cc(C)c3)C[C@H]2c2ccc(Cl)c(Cl)c2)cc1C(F)(F)F` (racemic) [Example 56, rac-N-[(3S,4R)-4-(3,4-Dichloro-phenyl)-1-(3,5-dimethyl-benzoyl)-pyrrolidin-3-yl]-4-methoxy-N-methyl-3-trifluoromethyl-benzamide], 9.52 nM; in that of `COc1ccc(C(=O)N(C)[C@@H]2CN(C(=O)c3ccc(C(C)=O)cc3)C[C@H]2c2ccc(Cl)c(Cl)c2)cc1C(F)(F)F` (racemic) [Example 57, rac-N-[(3S,4R)-1-(4-Acetyl-benzoyl)-4-(3,4-dichloro-phenyl)-pyrrolidin-3-yl]-4-methoxy-N-methyl-3-trifluoromethyl-benzamide], 1.55 nM.

As for `COc1ccc(C(=O)N(C)[C@@H]2CN(C(=O)c3cc(C)n(C)n3)C[C@H]2c2ccc(Cl)c(Cl)c2)cc1C(F)(F)F` (racemic) [Example 58, rac-N-[(3S,4R)-4-(3,4-Dichloro-phenyl)-1-(1,5-dimethyl-1H-pyrazole-3-carbonyl)-pyrrolidin-3-yl]-4-methoxy-N-methyl-3-trifluoromethyl-benzamide], the inhibition constant (Ki) was determined as 8.52 nM.

In the case of `CN(C(=O)c1cc(Cl)ccn1)[C@@H]1CN(C(=O)c2ccc(C#N)cc2)C[C@H]1c1ccc(Cl)c(Cl)c1` (racemic) [Example 59, rac-4-Chloro-pyridine-2-carboxylic acid [(3S,4R)-1-(4-cyano-benzoyl)-4-(3,4-dichloro-phenyl)-pyrrolidin-3-yl]-methyl-amide], the inhibition constant Ki came out at 12.8 nM. With `Cc1ccnc(C(=O)N(C)[C@@H]2CN(C(=O)c3ccc(C#N)cc3)C[C@H]2c2ccc(Cl)c(Cl)c2)c1` (racemic) [Example 63, rac-4-Methyl-pyridine-2-carboxylic acid [(3S,4R)-1-(4-cyano-benzoyl)-4-(3,4-dichloro-phenyl)-pyrrolidin-3-yl]-methyl-amide], the inhibition constant (Ki) was determined as 2.64 nM. Then `CCOCc1ccc(C(=O)N(C)[C@@H]2CN(C(=O)c3ccc(C#N)cc3)C[C@H]2c2ccc(Cl)c(Cl)c2)nc1` (racemic) [Example 65, rac-5-Ethoxymethyl-pyridine-2-carboxylic acid [(3S,4R)-1-(4-cyano-benzoyl)-4-(3,4-dichloro-phenyl)-pyrrolidin-3-yl]-methyl-amide], with 30.2 nM. Then `Cc1cc(Cl)cc(C(=O)N(C)[C@@H]2CN(C(=O)c3ccc(C#N)cc3)C[C@H]2c2ccc(Cl)c(Cl)c2)n1` (racemic) [Example 66, rac-4-Chloro-6-methyl-pyridine-2-carboxylic acid [(3S,4R)-1-(4-cyano-benzoyl)-4-(3,4-dichloro-phenyl)-pyrrolidin-3-yl]-methyl-amide], with 49.8 nM.

Take `COc1cc(C(=O)N(C)[C@@H]2CN(C(=O)c3ccc(C#N)cc3)C[C@H]2c2ccc(Cl)c(Cl)c2)nc2ccccc12` (racemic) [Example 67, rac-4-Methoxy-quinoline-2-carboxylic acid [(3S,4R)-1-(4-cyano-benzoyl)-4-(3,4-dichloro-phenyl)-pyrrolidin-3-yl]-methyl-amide]: the Ki is 52.9 nM. With `CCc1cc(Cl)cc(C(=O)N(C)[C@@H]2CN(C(=O)c3ccc(C#N)cc3)C[C@H]2c2ccc(Cl)c(Cl)c2)n1` (racemic) [Example 68, rac-4-Chloro-6-ethyl-pyridine-2-carboxylic acid [(3S,4R)-1-(4-cyano-benzoyl)-4-(3,4-dichloro-phenyl)-pyrrolidin-3-yl]-methyl-amide], the Ki was found to be 74.3 nM. In the case of `CN(C(=O)c1ccc(Cl)cn1)[C@@H]1CN(C(=O)c2ccc(C#N)cc2)C[C@H]1c1ccc(Cl)c(Cl)c1` (racemic) [Example 69, rac-5-Chloro-pyridine-2-carboxylic acid [(3S,4R)-1-(4-cyano-benzoyl)-4-(3,4-dichloro-phenyl)-pyrrolidin-3-yl]-methyl-amide] it was 23.3 nM. In the case of `CN(C(=O)c1ccc(C#N)cn1)[C@@H]1CN(C(=O)c2ccc(C#N)cc2)C[C@H]1c1ccc(Cl)c(Cl)c1` (racemic) [Example 70, rac-5-Cyano-pyridine-2-carboxylic acid [(3S,4R)-1-(4-cyano-benzoyl)-4-(3,4-dichloro-phenyl)-pyrrolidin-3-yl]-methyl-amide] it was 39.7 nM; in that of `COc1nc(C(=O)N(C)[C@@H]2CN(C(=O)c3ccc(C#N)cc3)C[C@H]2c2ccc(Cl)c(Cl)c2)ccc1C#N` (racemic) [Example 71, rac-5-Cyano-6-methoxy-pyridine-2-carboxylic acid [(3S,4R)-1-(4-cyano-benzoyl)-4-(3,4-dichloro-phenyl)-pyrrolidin-3-yl]-methyl-amide], 34.4 nM; in that of `CN(C(=O)c1ccc(Cl)c(C(F)(F)F)c1)[C@@H]1CN(C(=O)c2ccc(C#N)cc2)C[C@H]1c1ccc(Cl)c(Cl)c1` (racemic) [Example 72, rac-4-Chloro-N-[(3S,4R)-1-(4-cyano-benzoyl)-4-(3,4-dichloro-phenyl)-pyrrolidin-3-yl]-N-methyl-3-trifluoromethyl-benzamide], 0.58 nM. As to `COc1ccc(C(=O)N(C)[C@@H]2CN(C(=O)c3ccc(C#N)cc3)C[C@H]2c2ccc(Cl)c(Cl)c2)cc1F` (racemic) [Example 73, rac-N-[(3S,4R)-1-(4-Cyano-benzoyl)-4-(3,4-dichloro-phenyl)-pyrrolidin-3-yl]-3-fluoro-4-methoxy-N-methyl-benzamide], the inhibitory constant (Ki) was found to be 12.4 nM.
